Experimental findings from ChEMBL document CHEMBL1201862, “PubChem BioAssay data set” (2004) are described below.

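Exposure lasted 48 hours, with cells grown in 96-well plates and compounds tested at five concentrations. GI50: concentration for 50% inhibition of growth.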 The source made the active and inactive calls. No stated cut-off is given here; in the data, active = GI50 up to about 1.1 µM and inactive = higher.

Some test systems named below: DU-145; EKVX; HCT-15; HOP-92; HT-29; M14; MDA-MB-435; OVCAR-3; OVCAR-8; SF-268; SF-295; SN12C; SNB-19; SNB-75; U-251; UACC-62; UO-31; LOX IMVI; MCF7; Malme-3M.
Holding throughout (test): growth of human tumour cells (NCI), 48 h

As to `CCn1nc(C)c2c1C(=O)NCC(=O)N2`, the GI50 in the experiment on DU-145 is > 100 µM (inactive); in the experiment on EKVX it was > 100 µM (inactive); in the experiment on HCT-15, greater than 100 µM; in the experiment with HOP-92 it was > 100 µM (inactive); in the experiment with HT-29 it was > 100 µM (inactive); with M14, > 100 µM (inactive). In addition, the GI50 with MDA-MB-435, with OVCAR-3, in the experiment with OVCAR-8, in the experiment with SF-268, with SF-295 and with SN12C was > 100 µM (inactive) each time. Further, the GI50 in the experiment with SNB-19, with SNB-75, in the experiment on U-251, in the experiment on UACC-62 and with UO-31 was > 100 µM (inactive) each time.
In the case of `O=C(c1ccccc1O)c1cc(-c2ncc3c(=O)c4ccccc4oc3n2)c(-c2ccccc2O)[nH]c1=O`, the GI50 was 36.5 µM (inactive) in the experiment with EKVX; 24.9 µM in the experiment on HCT-15; 23.4 µM (inactive) in the experiment with HOP-92; 28.2 µM (inactive) with HT-29; 18.6 µM (inactive) in the experiment with LOX IMVI; 14.3 µM (inactive) in the experiment with MCF7. Further, the GI50 with Malme-3M was 30 µM (inactive); with OVCAR-3, 24 µM (inactive); with OVCAR-8, 30.7 µM (inactive); in the experiment on SF-268, 22.5 µM (inactive); in the experiment on SF-295, 11.4 µM (inactive); in the experiment with SN12C, 23.8 µM (inactive). For the same molecule, the GI50 was 8.73 µM (inactive) in the experiment with SNB-19, 19.2 µM (inactive) in the experiment with SNB-75, 22.9 µM (inactive) with UACC-62 and 14.9 µM (inactive) in the experiment on UO-31.
As for `CCOC(=O)c1sc2nc(SC)nc3c2c1NCN3C`, the GI50 in the experiment with DU-145 is 70.1 µM (inactive); in the experiment with HCT-15, greater than 100 µM; in the experiment on HOP-92, 11.5 µM (inactive); in the experiment with HT-29, > 100 µM (inactive); with LOX IMVI, 36 µM (inactive); in the experiment on M14 it was 76.9 µM (inactive). In addition, the GI50 in the experiment with MDA-MB-435 was > 100 µM (inactive); in the experiment with Malme-3M, 24.8 µM (inactive); in the experiment with OVCAR-3 it was > 100 µM (inactive); in the experiment on OVCAR-8 it was 10.7 µM (inactive); with SF-268 it was 16.7 µM (inactive); in the experiment on SF-295, 27.9 µM (inactive). For the same molecule, the GI50 in the experiment on SN12C was 30.6 µM (inactive); with SNB-19, 20.5 µM (inactive); in the experiment with SNB-75, 5.78 µM (inactive); with U-251 it was 20.6 µM (inactive); in the experiment with UACC-62, 42.7 µM (inactive); in the experiment with UO-31, 11.9 µM (inactive).
Consider `CCCCC1=NNC(=O)C1`, for which the GI50 was > 100 µM (inactive) with EKVX; greater than 100 µM with HCT-15; > 100 µM (inactive) with HOP-92; > 100 µM (inactive) with HT-29; > 100 µM (inactive) in the experiment on M14; > 100 µM (inactive) in the experiment on MCF7. Moreover, the GI50 in the experiment with MDA-MB-435, in the experiment with Malme-3M, in the experiment with OVCAR-3, in the experiment with OVCAR-8, in the experiment on SF-295 and in the experiment on SN12C was > 100 µM (inactive) throughout. The GI50 in the experiment with SNB-75, with U-251, in the experiment with UACC-62 and in the experiment on UO-31 was > 100 µM (inactive) throughout.
For `COC(=O)C(C/C=C(\C)c1ccccc1)C(C)=O` (stereo unspecified), the GI50 in the experiment with EKVX is > 100 µM (inactive); in the experiment with HCT-15, 66.1 µM; in the experiment on HOP-92 it was 17.1 µM (inactive); in the experiment with HT-29, 83.9 µM (inactive); in the experiment with LOX IMVI, 68.2 µM (inactive); in the experiment on MCF7 it was > 70.3 µM (inactive). The GI50 was > 100 µM (inactive) with Malme-3M; 50.6 µM (inactive) with OVCAR-3; > 100 µM (inactive) in the experiment with OVCAR-8; 97.3 µM (inactive) in the experiment with SF-268; 18.4 µM (inactive) with SF-295; > 100 µM (inactive) with SN12C. The GI50 was > 100 µM (inactive) with SNB-19; 47.3 µM (inactive) in the experiment on SNB-75; 57.5 µM (inactive) in the experiment with U-251; > 63.4 µM (inactive) in the experiment on UACC-62; 33.2 µM (inactive) with UO-31.
In the case of `O=c1c2cc([N+](=O)[O-])ccc2sc2ccsc12`, the GI50 with EKVX is > 100 µM (inactive); in the experiment with HCT-15, greater than 100 µM; with HOP-92, > 100 µM (inactive); in the experiment on HT-29, > 100 µM (inactive); in the experiment on LOX IMVI it was > 100 µM (inactive); in the experiment on M14, > 100 µM (inactive). Further, the GI50 in the experiment on Malme-3M, with OVCAR-3, with OVCAR-8, in the experiment with SF-268, with SF-295 and with SN12C was > 100 µM (inactive) throughout. Also, the GI50 in the experiment on SNB-19, in the experiment with SNB-75, with U-251, in the experiment with UACC-62 and with UO-31 was > 100 µM (inactive) each time.
`COC(=O)[C@]1(c2ccc(N(C)C)cc2OC)C[C@@H]2CCCN(CCc3c1[nH]c1ccccc31)C2`: the GI50 in the experiment on EKVX was 22.3 µM (inactive); in the experiment on HCT-15, 20.8 µM; in the experiment on HOP-92 it was 10.7 µM (inactive); in the experiment on HT-29, 15 µM (inactive); in the experiment on LOX IMVI, > 43.7 µM (inactive); in the experiment with MCF7 it was 15.9 µM (inactive). The GI50 in the experiment on Malme-3M is 15.9 µM (inactive); in the experiment with OVCAR-3, 18.5 µM (inactive); in the experiment with OVCAR-8, 24.9 µM (inactive); with SF-268, 21.1 µM (inactive); in the experiment on SF-295 it was > 43.7 µM (inactive); with SN12C, 19.3 µM (inactive). The GI50 with SNB-19 was 74 µM (inactive); in the experiment on SNB-75, 12.4 µM (inactive); in the experiment with U-251, 19.1 µM (inactive); in the experiment on UACC-62, 18 µM (inactive); in the experiment with UO-31, 15.5 µM (inactive).
`O=C(Nc1cccc(O)c1)C(=O)C1C(=O)NC(=S)NC1=O`: the GI50 is > 100 µM (inactive) in the experiment with EKVX; greater than 100 µM in the experiment with HCT-15; > 100 µM (inactive) in the experiment with HOP-92; > 100 µM (inactive) in the experiment on HT-29; > 100 µM (inactive) in the experiment with LOX IMVI; > 100 µM (inactive) with M14. The GI50 in the experiment with Malme-3M, with OVCAR-3, with OVCAR-8, with SF-268, with SF-295 and with SN12C was > 100 µM (inactive) each time. Further, the GI50 in the experiment on SNB-19, in the experiment on SNB-75, with U-251, with UACC-62 and in the experiment on UO-31 was > 100 µM (inactive) each time.
Take `CSc1nncc2[nH]c(C)nc12`: the GI50 is > 100 µM (inactive) in the experiment with EKVX; greater than 100 µM in the experiment with HCT-15; > 100 µM (inactive) in the experiment on HT-29; > 100 µM (inactive) in the experiment with LOX IMVI; > 100 µM (inactive) in the experiment with M14; > 100 µM (inactive) with MCF7. The GI50 in the experiment with MDA-MB-435, with Malme-3M, in the experiment with OVCAR-3, with OVCAR-8, with SF-295 and in the experiment on SN12C was > 100 µM (inactive) in each case. Moreover, the GI50 in the experiment with SNB-75, with U-251, in the experiment with UACC-62 and with UO-31 was > 100 µM (inactive) each time.
